Entries after “also recorded” stand apart in the source; their conditions may differ. Where two headings read alike, the source gives them in different places. No end group written: not given here.
System: NSC-34 cells
Assay: LDH assay (cytotoxicity) in NSC-34 cells
Type: cell-based
Details: for DRP-induced toxicity: incubated 24 hours; for toxicity: DRP concentrations as low as 300 nM
From the text: LDH Assay: The LDH assay is a colorimetric assay that measures cell toxicity and death. […] When cells lose membrane integrity, an enzyme found in living cells called lactate dehydrogenase (LDH) is released into the solution surrounding the dying cell. A form of programmed cell death, apoptosis, as well as other forms of cell death also ultimately lead to a cell's membrane being destroyed, resulting in a large release of LDH into the extracellular space. Thus, LDH is an excellent marker not only for necrosis, but for all instances of cell death. In an LDH assay, a sample of the solution surrounding the cell is isolated, and transferred to a plate containing an LDH reaction mixture. This reaction mixture contains a tetrazolium salt intermediate and other reaction constituents that, when exposed to LDH, convert the tetrazolium salt into a colored Formazan product. This Formazan product can be quantified spectrophotometrically. Greater absorbance readings correspond to more cell death.
One row on the top and bottom of the plate, and two columns on either side of the plate, were left without cells and contained culture medium only to minimize experimental well volume evaporation. After plating, cells were incubated for 24 h at 37° C., 5% CO2 prior to DRP and/or PRMT inhibitor addition. At time of DRP/PRMT inhibitor addition, desired doses of DRP for challenge and inhibitor for treatment were achieved by diluting aliquots of each stock in warm culture medium. During experiments where both PRMT inhibitors and DRPs were used, PRMT inhibitors were always applied to wells first, and followed by DRP application. […] Inhibitor toxicity controls were included as wells treated with the desired doses of drug for the experiment, but no DRP. DRP toxicity controls were included as wells only treated with the doses of DRP used for challenge. Once dosed, plates were incubated for 24 h at 37° C., 5% CO2 prior to running the WST-1 or LDH assay endpoints. Additional controls needed for each endpoint are specified in the “WST-1 Assay” and “LDH Assay” sections of these methods.
LDH Assay: Cells were plated and prepared using the steps described in the “Plating NSC-34 and Dosing with DRPs and PRMT Inhibitors” section of these methods. Other controls for this experiment included several sets of wells with only cells in culture medium (one triplicate designated for “untreated,” one triplicate designated for “lysed” positive control), and wells with culture medium only. An additional control added only to the transfer plate at time of testing was 5 μL LDH only. Testing was performed using colorimetric LDH-Cytotoxicity Assay Kit II (Abcam, Cambridge, MA, USA) per manufacturer's instructions. Final read at 450 nm was performed on a SpectraMax M3 Microplate Reader (Molecular Devices, San Jose, CA, USA). Data analysis included calculation of % LDH release using the following equation: […]
Experiments included three replicates per condition. Each experiment was repeated twice (executed three times total).
(§1) The following conditions were plated in triplicate.
Plates were incubated for 24 h at 37° C., 5% CO2. Cells were tested and data were analyzed by LDH assay.
Cells were plated in culture medium in 2 96-well plates at a density of 3.7×10^4 cells per well, and incubated overnight at 37° C., 5% CO2.
as §1
Cells were plated in culture medium in 2 96-well plates at a density of 3.7×10^4 cells per well, and incubated overnight at 37° C., 5% CO2. […]
The following conditions were plated in triplicate. […]

Compound	EC50 (24 h) [nM]	DRP-induced toxicity (DRP 0.01-3 μM)	toxicity (24 h)	cytotoxicity induced by DRP challenge (DRP 10 nM-3 μM, 24 h)	EC50 (DRP 0.01-3 μM, 24 h, read-out: EC50 of DRP-induced toxicity) [nM]	effect on GR15-induced cytotoxicity (300 nM GR15, 24 h, MS023 60 and 30 μM)	abrogation of PR-induced cytotoxicity (300 nM PR15, 24 h, all doses applied (1-60 μM))	abrogation of ADMe-GR15-induced cytotoxicity (3 μM ADMe-GR15, 24 h, MS023 0.1-10 μM)	abrogation of GR-induced toxicity (3 μM GR15, 24 h, all tested doses (1-60 μM))	dose dependence of abrogation of GR15-induced cytotoxicity (3 μM GR15, 24 h, dose range of the example)	abrogation of GR-induced toxicity (3 μM GR15, 24 h, doses 0.01, 0.03, 0.1 and 0.3 μM)	abrogation of GR-induced toxicity (3 μM GR15, 24 h, doses 0.3, 1 and 3 μM)	abrogation of GR15-induced cytotoxicity (3 μM GR15, 24 h, doses 1 and 3 μM)	relative potency against GR- vs PR-induced toxicity (3 μM GR15 or PR15, 24 h, MS023 0.01-3 μM)	dose dependence of abrogation of PR15-induced cytotoxicity (3 μM PR15, 24 h, dose range of the example)	abrogation of PR-induced toxicity (3 μM PR15, 24 h, doses 0.01, 0.03 and 0.1 μM)	abrogation of PR-induced toxicity (3 μM PR15, 24 h, doses 0.03, 0.1, 0.3, 1 and 3 μM)	abrogation of PR-induced cytotoxicity (3 μM PR15, 24 h, doses 1 and 3 μM)	abrogation of PR-induced cytotoxicity (3 μM PR15, 24 h, doses 10, 30 and 60 μM)	cytotoxicity of inhibitor alone (no DRP, highest dose 60 μM)
PRPRPRPRPRPRPRPRPRPRPRPRPRPRPR [PR15]	56 ± 20	produced significant, dose-dependent toxicity	approximately 10%																	
GRGRGRGRGRGRGRGRGRGRGRGRGRGRGR [GR15]		produced significant, dose-dependent toxicity	approximately 10%	induced dose-dependent cytotoxicity	50 ± 26															
CC(C)Oc1ccc(-c2c[nH]cc2CN(C)CCN)cc1 [MS023]						significantly amplified cytotoxicity	at least partially abrogated	did not abrogate	partially abrogated	potently, and dose-dependently abrogated; also recorded: consistently dose-dependently abrogated	partially abrogated	completely abrogated	completely abrogated	more potently abrogated PR-induced toxicity	potently, and dose-dependently abrogated	partially abrogated	completely abrogated	fully abrogated; also recorded: completely abrogated	partially abrogated	did produce significant cytotoxicity

— US12318365B2, “Inhibition of dipeptide repeat proteins” (ALS Therapy Development Institute, priority 2019, dated 2025)
